Where two headings read alike, the source gives them in different places.
Test: Pharmacokinetic analyses in mice (PO suspension, IV, SC)
Format: in vivo, mouse
Settings: in vivo
Description: Female CD-1 mice as above were fasted for 2 h prior, and 4 h after dosing. […] […], 3 mice from each group were euthanized by CO2 inhalation, blood was collected by cardiac puncture into K2EDTA collection tubes, and protein was precipitated and analysed by LC/MS-MS for plasma concentrations of MBX-4132. Data were analysed using WinNonLin.
[…] At 0.083, 0.5, 1, 4, 8 and 24 h post dose, blood was collected from 3 mice/group by tail vein or facial bleed into K2EDTA collection tubes, and protein was precipitated and analysed by LC/MS-MS for plasma concentrations of MBX-4132. Sampling was performed serially, with each mouse contributing sample at all time points. Data were analysed using WinNonLin.

[1] = female, CD-1, mouse, sc, 10 mg/kg, SC (10 mg/kg), mean of 3 animals, read-out: MBX 4132 Concentrations in Mouse Plasma, Mean
[2] = female, CD-1, mouse, sc, 10 mg/kg, SC (10 mg/kg), individual animals, read-out: MBX 4132 Concentrations in Mouse Plasma
[3] = female, CD-1, mouse, sc, 25 mg/kg, SC (25 mg/kg), individual animals, read-out: MBX 4132 Concentrations in Mouse Plasma
[4] = female, CD-1, mouse, sc, 25 mg/kg, SC (25 mg/kg), mean of 3 animals, read-out: MBX 4132 Concentrations in Mouse Plasma, Mean
[5] = mouse, iv, 10 mg/kg, IV (10 mg/kg), individual animals, read-out: MBX 4132 Concentrations in Mouse Plasma
[6] = mouse, iv, 10 mg/kg, IV (10 mg/kg), mean of 3 animals, read-out: MBX 4132 Concentrations in Mouse Plasma, Mean
[7] = mouse, po, 10 mg/kg, PO (10 mg/kg), mean of 3 animals, read-out: MBX 4132 Concentrations in Mouse Plasma, Mean
[8] = mouse, po, 10 mg/kg, PO (10 mg/kg), individual animals, read-out: MBX 4132 Concentrations in Mouse Plasma

With `O=C(Nc1nnc(-c2ccc(F)cc2)o1)N1CCc2ccccc2C1` [MBX 4132] as the molecule, how does the concentration at 8 h (female, CD-1, mouse, po, 10 mg/kg, PO (10 mg/kg susp.), mean of 3 animals, read-out: MBX 4132 Concentrations in Mouse Plasma, Mean) read?
Its concentration at 8 h is 9920 ng/mL.

And the concentration at 24 h (female, CD-1, mouse, po, 10 mg/kg, PO (10 mg/kg susp.), individual animals, read-out: MBX 4132 Concentrations in Mouse Plasma)?
The concentration at 24 h was less than 62.5 ng/mL.

And the concentration at 0.083 h (female, CD-1, mouse, po, 10 mg/kg, PO (10 mg/kg), mean of 3 animals, read-out: MBX 4132 Concentrations in Mouse Plasma, Mean)?
Its concentration at 0.083 h is 1260 ng/mL.

And the concentration at 0.083 h [1]?
The concentration at 0.083 h was 786 ng/mL.

What about the concentration at 0.5 h [2] of the same molecule?
The concentration at 0.5 h was 3430 ng/mL.

What about the concentration at 0.5 h [1] of the same molecule?
The concentration at 0.5 h was 3780 ng/mL.

And the concentration at 1 h [2]?
Its concentration at 1 h is 3480 ng/mL.

What about the concentration at 1 h [1] of the same molecule?
The concentration at 1 h was 3350 ng/mL.

And the concentration at 4 h [2]?
Its concentration at 4 h is 3280 ng/mL.

And the concentration at 4 h [1]?
Its concentration at 4 h is 2850 ng/mL.

What about the concentration at 8 h [2] of the same molecule?
The concentration at 8 h was 2000 ng/mL.

And the concentration at 8 h [1]?
Its concentration at 8 h is 2430 ng/mL.

What about the concentration at 24 h [2] of the same molecule?
Its concentration at 24 h is 599 ng/mL.

And the concentration at 24 h [1]?
The concentration at 24 h was 608 ng/mL.

What about the concentration at 0.083 h [3] of the same molecule?
The concentration at 0.083 h was 1170 ng/mL.

What about the concentration at 0.083 h [4] of the same molecule?
Its concentration at 0.083 h is 1510 ng/mL.

What about the concentration at 0.5 h [4] of the same molecule?
The concentration at 0.5 h was 5010 ng/mL.

What about the concentration at 1 h [3] of the same molecule?
Its concentration at 1 h is 3020 ng/mL.

What about the concentration at 1 h [4] of the same molecule?
Its concentration at 1 h is 4580 ng/mL.

What about the concentration at 4 h [3] of the same molecule?
Its concentration at 4 h is 2380 ng/mL.

What about the concentration at 4 h [4] of the same molecule?
Its concentration at 4 h is 3010 ng/mL.

What about the concentration at 8 h [3] of the same molecule?
Its concentration at 8 h is 3420 ng/mL.

And the concentration at 8 h [4]?
Its concentration at 8 h is 4040 ng/mL.

And the concentration at 24 h [3]?
The concentration at 24 h was 1540 ng/mL.

And the concentration at 24 h [4]?
Its concentration at 24 h is 1800 ng/mL.

And the concentration at 0.083 h [5]?
The concentration at 0.083 h was 74600 ng/mL.

What about the concentration at 0.083 h [6] of the same molecule?
Its concentration at 0.083 h is 66300 ng/mL.

What about the concentration at 0.5 h [5] of the same molecule?
Its concentration at 0.5 h is 30600 ng/mL.

And the concentration at 0.5 h [6]?
Its concentration at 0.5 h is 32900 ng/mL.

And the concentration at 1 h [5]?
The concentration at 1 h was 21000 ng/mL.

What about the concentration at 1 h [6] of the same molecule?
The concentration at 1 h was 21400 ng/mL.

What about the concentration at 4 h [5] of the same molecule?
Its concentration at 4 h is 7790 ng/mL.

What about the concentration at 4 h [6] of the same molecule?
The concentration at 4 h was 7590 ng/mL.

What about the concentration at 8 h [5] of the same molecule?
The concentration at 8 h was 3920 ng/mL.

What about the concentration at 8 h [6] of the same molecule?
Its concentration at 8 h is 3730 ng/mL.

And the concentration at 0.5 h [7]?
Its concentration at 0.5 h is 1360 ng/mL.

And the concentration at 1 h [8]?
The concentration at 1 h was 1090 ng/mL.

And the concentration at 1 h [7]?
Its concentration at 1 h is 1440 ng/mL.

And the concentration at 4 h [8]?
The concentration at 4 h was 1680 ng/mL.

What about the concentration at 4 h [7] of the same molecule?
Its concentration at 4 h is 2170 ng/mL.

What about the concentration at 8 h [8] of the same molecule?
Its concentration at 8 h is 4350 ng/mL.

And the concentration at 8 h [7]?
Its concentration at 8 h is 5110 ng/mL.

And the concentration at 24 h [7]?
The concentration at 24 h was 58 ng/mL.

Reference: publication PMC7979765, “trans-Translation inhibitors bind to a novel site on the ribosome and clear Neisseria gonorrhoeae in vivo” (Nature Communications, 2021)
